We go through 6 molecules from patent US11427590B2, “Small molecule inhibitors of neutral sphingomyelinase 2 (nSMase2) for the treatment of neurodegenerative diseases” (The Johns Hopkins University, priority 2017, dated 2022).

The nature of data set [1]: Phase I metabolic stability in mouse liver microsomes. Format: in vitro ADME. The conditions noted are these: 37° C. The method, then: (§1) Phase I metabolic stability in both mouse and human liver microsomes was performed as described previously. Rais et al. Briefly, compounds are spiked in liver microsomes (mouse, human) and incubated in an orbital shaker at 37° C. […] Compound disappearance is monitored over time using LC/MS/MS.

The subject of the next data set is rat astrocytes. Nature of the data set: Inhibition of exosome release from primary astrocytes in vitro. Format: cell-based. The conditions noted are these: 0.3-10 μM, 2 h after treatment, vs DMSO (0.02%). The method, then: The effect of nSMase2 inhibitors on the manufacturing and release of ceramide rich exosomes from primary astrocytes was investigated as previously described. Dickens, et al. Briefly, rat astrocytes are seeded onto 6-well plates at a density of 20,000 cells/well. Twenty-four hours after seeding, astrocytes are washed with PBS and the medium changed to media without FBS. Absence of FBS mimics a trophic factor withdrawal stimulus causing the release of exosomes via a nSMase2-dependent pathway. Astrocytes are then treated with nSMase2 inhibitors at concentrations in the range 0.03-30 μM. DMSO (0.02%) is used as control. Two hours after treatment, media is collected and centrifuged at 2700 g for 15 min (4° C.). Supernatant is further centrifuged at 10,000 g for 15 min (4° C.) to remove large particles such as apoptotic bodies. Astrocyte-derived extracellular vesicles (EVs) are isolated via ultracentrifugation at 100,000 g for 3 h at 4° C. Fractions containing EV are washed twice with 5 ml PBS and the final pellet resuspended in PBS. This isolation procedure results in the isolation of EVs with a narrow size range and protein markers consistent with exosomes. Dickens, et al. The number of EVs is quantified using ZetaView Nanoparticle Tracker (Particle Metrix GmBH, Meerbusch, Germany) and the corresponding ZetaVeiw software (8.03.04.01). Nanosphere size standard 100 nm (Thermo Scientific) is used to calibrate the instrument prior to sample readings. For each sample 1 mL of the supernatant is injected into the sample-carrier cell and the particle count measured at 5 positions, with 2 cycles of reading per position. Cells are washed with PBS after every sample. Mean concentration of EVs/mL (±SEM) is calculated from 6 replicates. This screening assay is reliable with a Z′=0.75.
Referring now to FIG. 4A and FIG. 4B, the ability of compound 38 and several of its analogs to inhibit exosome release in vitro was evaluated as previously described. […] Two hours after treatment, exosomes were isolated from the media and quantified using ZetaView Nanoparticle Tracker. The mean concentration of exosomes (EVs/mL±SEM) was calculated from 6 replicate experiments (see FIG. 4). […] Baseline exosome release can be variable between experiments; as a result, inhibition is always compared relative to vehicle treatment within the same experiment. Structures of compounds with their corresponding IC50s are provided in the second row of FIG. 4.

Data set [2] is described as follows: Phase I metabolic stability in human liver microsomes. To be noted: 37° C. Type of data set: in vitro ADME. As to the method:
as §1
(Microsomes from liver hold many membrane-bound enzymes, among them those of drug oxidation.)

The next data set has as its system GFAP-GFP mice. Nature of the data set: Inhibition of exosome release in vivo after striatal IL-1β injection. The conditions noted are these: mouse. The method, then:
Striatal injections of IL-1β and exosome measurements are performed as previously described by our group in adult (2-3 month) male GFAP-GFP mice (Jackson Laboratories). Dickens, et al.; McCluskey, et al. Mice are anesthetized with 3% Isoflourane (Baxter) in oxygen (Airgas), and placed in a stereotaxic frame (Stoelting Co.). A small burr hole is drilled in the skull over the left striatum using a dental drill (Fine Scientific Tools). IL1β (0.1 ng/3 μl) is injected (total volume of 3 μl) at the rate 0.5 μl/min via a pulled glass capillary tip diameter <50 μm using the stereotaxic coordinates: A/P+1; M/L-2; -3 D/V. Following infusion, the capillary is held in place for 5 min to allow for solution to diffuse into the tissue. Animals are sacrificed at 2, 12 or 24 h by an overdose of anesthetic, and transcardially perfused with ice-cold saline containing heparin (20 μl per 100 ml, Sigma). Blood is rapidly isolated and flash frozen. […]
GFAP-GFP mice that release green EVs from astrocytes into the systemic circulation were used so that exosome release from astrocytes in plasma can be followed. […] The concentration of immunoprecipitated GFP+ EVs is quantified using ZetaView nanoparticle tracking analysis (Particle Metrix) as described in the cell-based exosome release. […]

Data set [3] is described as follows: Pharmacokinetics, plasma and brain levels in mice. As to the method: Blood was obtained via cardiac puncture and brain tissue was dissected at 0.25, 0.5, 1, 2, 4, 6 and 8 h post dose (n=3 per gender and time point). Plasma was harvested from blood by centrifugation. Subsequently, samples were extracted from plasma and brain by a one-step protein precipitation using acetonitrile followed by vortexing for […] and centrifugation (10,000 g for 10 min) as we have described previously. Rais, et al. Once extracted, the samples were reconstituted into a mobile phase and analyzed via LC/MS/MS. Plasma concentrations (nM) as well as tissue concentrations (pmol/g) were determined and plots of mean plasma concentration vs. time were constructed for PK analysis. Non-compartmental-analysis modules in WinNonlin® (version 5.3) were used to assess pharmacokinetic parameters including maximal concentration (Cmax), time to Cmax (Tmax), area under the curve extrapolated to infinity (AUC0-∞) and brain-to-plasma (B/P) ratios.

For another data set, the system named is alkaline phosphatase. Kind of data set: Inhibition of related enzyme alkaline phosphatase. To be noted: related enzyme (phosphomonoesterase).
Data set [4] concerns panel of 44 selected targets.
A further data set addresses acid sphinghomyelinase (Homo sapiens (Human), UniProt P17405). Kind of data set: Inhibition of related enzyme acid sphingomyelinase. Format: biochemical. The conditions noted are these: related enzyme (phosphodiesterase).
For data set [5] the following is noted: background statement on known inhibitor; cited from earlier work.

Sequence of acid sphinghomyelinase (P17405 47-631): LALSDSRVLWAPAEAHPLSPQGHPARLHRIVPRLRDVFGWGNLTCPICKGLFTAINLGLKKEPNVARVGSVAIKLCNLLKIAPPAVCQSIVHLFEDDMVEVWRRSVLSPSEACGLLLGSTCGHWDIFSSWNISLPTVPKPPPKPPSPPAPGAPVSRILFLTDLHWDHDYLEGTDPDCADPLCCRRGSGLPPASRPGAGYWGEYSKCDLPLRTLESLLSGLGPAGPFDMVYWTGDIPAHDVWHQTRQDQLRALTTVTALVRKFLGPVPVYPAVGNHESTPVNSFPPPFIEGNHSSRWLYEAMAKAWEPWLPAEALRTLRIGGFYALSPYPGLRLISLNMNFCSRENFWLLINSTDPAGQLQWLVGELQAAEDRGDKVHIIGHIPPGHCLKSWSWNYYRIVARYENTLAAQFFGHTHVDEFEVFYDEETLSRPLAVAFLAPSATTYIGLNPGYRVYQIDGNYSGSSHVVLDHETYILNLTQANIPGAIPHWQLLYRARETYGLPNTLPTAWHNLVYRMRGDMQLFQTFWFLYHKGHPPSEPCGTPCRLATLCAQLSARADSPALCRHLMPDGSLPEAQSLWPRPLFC
Experimental for alkaline phosphatase: Phosphorylcholine undergoes dephosphorylation in a reaction catalyzed by alkaline phosphatase (4 U/mL) to produce choline which in turn is oxidized by choline oxidase (0.1 U/mL) to betaine and hydrogen peroxide (H2O2). Hydrogen peroxide is made to react with Amplex red (50 μM) in the presence of horseradish peroxidase (HRP, 1 U/mL) to generate the fluorescent molecule resorufin. Generation of fluorescence is monitored by measuring relative florescence units (RFU) with excitation at 530 nm and emission at 590 nm. Extent of fluorescence is directly proportional to the extent of SM hydrolysis. Substrate stock solution is prepared in 2% Triton X-100 and sonicated for 1 min. Reactions are carried out for 1 h at 37° C. in 100 mM Tris-HCl pH 7.4, 10 mM MgCl2, 0.2% Triton X-100. This assay has been optimized in 384-well format (50 μL total volume per well) under conditions where nSMase2-catalyzed hydrolysis of SM is linear with respect to nSMase2 concentration, time of incubation and SM concentration (FIGS. 3A-3C). The assay has high reliability (Z′=0.8-0.9). It is used for compound screening, IC50 determinations and mode of inhibition studies. IC50 determinations are carried out in duplicate eight-point dose response curves. A counter screen is concomitantly carried out to identify false positives resulting from inhibition of the coupling enzymes. […]

`COc1ccc(-c2c(C)nc3c(N4CCCC4)cc(C)nn23)cc1OC` [compound 44, 3-(3,4-dimethoxyphenyl)-2,6-dimethyl-8-(pyrrolidin-1-yl)imidazo[1,2-b]pyridazine]: the “Mouse Liver Microsome (+) NADPH % Remaining at 60 min” value in [1] came out at 1 ± 0%. In addition, the “exosome release from astrocytes” value with rat astrocytes is on record as “decreased the number of exosomes released from astrocytes in a dose dependent manner”. Also, the “Human Liver Microsome (+) NADPH Remaining at 60 min” value in data set [2] was 58 ± 4%.

Consider `COc1ccc(-c2c(-c3ccc(C)cc3)nc3c(N4CC[C@@H](NC(C)=O)C4)cc(C)nn23)cc1OC` [compound 62, (R)—N-(1-(3-(3,4-dimethoxyphenyl)-6-methyl-2-(p-tolyl)imidazo[1,2-b]pyridazin-8-yl)pyrrolidin-3-yl)acetamide], for which, in data set [1], the “Mouse Liver Microsome (+) NADPH % Remaining at 60 min” value is listed as 53 ± 6%. Further, in the data set on rat astrocytes, the “exosome release from astrocytes” value is “decreased the number of exosomes released from astrocytes in a dose dependent manner”. Moreover, the “Human Liver Microsome (+) NADPH Remaining at 60 min” value in [2] amounted to 28 ± 5%.

For `COc1ccc(-c2c(C)nc3c(N4CC[C@@H](NC(=O)Oc5ccccc5)C4)cc(C)nn23)cc1OC` [compound 38, Phenyl (R)-(1-(3-(3,4-dimethoxyphenyl)-2,6-dimethylimidazo[1,2-b]pyridazin-8-yl)pyrrolidin-3-yl) carbamate], the “exosomes in plasma after striatal IL-1β injection” value in the data set with GFAP-GFP mice is on record as “significantly reduced the increased exosomes”. In addition, in data set [3] (10 mg/kg i.p.), the systemic exposure result is reported as “high systemic exposures”. In data set [3] (10 mg/kg peroral), the brain exposure result is on record as “high brain exposures” and the plasma exposure result is “high plasma exposures”. For the same molecule, the “exosome release from astrocytes” value in the data set on rat astrocytes is on record as “decreased the number of exosomes released from astrocytes in a dose dependent manner”. Besides, the “inhibition of alkaline phosphatase” value with alkaline phosphatase is on record as “not inhibiting”. Besides, in data set [4] (10 μM, all positive hits), the “inhibition of positive hits” value was “less than 100%”. The “segregation in potency between off targets and nSMase2” value in data set [4] (off targets vs nSMase2) is at least 20 fold. Moreover, on acid sphinghomyelinase, the “inhibition of acid sphinghomyelinase” value is “not inhibiting”. Further, the “Human Liver Microsome (+) NADPH Remaining at 60 min” value in data set [2] amounted to 103 ± 14%.

With `O=C(/C=C/c1ccc(/C=C/C(=O)Nc2ccc(C3=NCCN3)cc2)cc1)Nc1ccc(C2=NCCN2)cc1` [GW4869], the solubility entry in [5] is recorded as “poor solubility”.

With `COc1ccc(-c2c(C)nc3c(N4CC[C@@H](NS(=O)(=O)c5ccc(C(F)(F)F)cc5)C4)cc(C)nn23)cc1OC` [compound 30, (R)—N-(1-(3-(3,4-dimethoxyphenyl)-2,6-dimethylimidazo[1,2-b]pyridazin-8-yl)pyrrolidin-3-yl)-4-(trifluoromethyl)benzenesulfonamide], the “Mouse Liver Microsome (+) NADPH % Remaining at 60 min” value in data set [1] turned out to be 15 ± 5%. Moreover, in the data set on rat astrocytes, the “exosome release from astrocytes” value is recorded as “decreased the number of exosomes released from astrocytes in a dose dependent manner”. For the same molecule, the “Human Liver Microsome (+) NADPH Remaining at 60 min” value in data set [2] was found to be 61 ± 3%.

As to `COc1ccc(-c2c(C)nc3c(N4CC[C@@H](NC(=O)C(F)(F)F)C4)cc(C)nn23)cc1OC` [compound 35, (R)—N-(1-(3-(3,4-dimethoxyphenyl)-2,6-dimethylimidazo[1,2-b]pyridazin-8-yl)pyrrolidin-3-yl)-2,2,2-trifluoroacetamide], the “Mouse Liver Microsome (+) NADPH % Remaining at 60 min” value in data set [1] is 117 ± 8%. Moreover, the “Human Liver Microsome (+) NADPH Remaining at 60 min” value in data set [2] came out at 113 ± 8%.
